# In US11795177B2, “Substituted quinoline analogs as aldehyde dehydrogenase 1A1 (ALDH1A1) inhibitors” (THE UNITED STATES OF AMERICA, AS REPRESENTED BY THE …, priority 2017, dated 2023):
# Counter-ions that a name gives are not always drawn.
# How the values were obtained:
# [1] = target: T1, ALDH1A1 enzyme (Homo sapiens, UniProt P00352); experiment: ALDH1A1 enzymatic assay (in vitro); format: biochemical; settings: ALDH1A1 enzyme 20 nM, NAD+ 1 mM, propionaldehyde 80 μM; read-out: ALDH1A1 IC50
# T1 sequence (P00352 1-501): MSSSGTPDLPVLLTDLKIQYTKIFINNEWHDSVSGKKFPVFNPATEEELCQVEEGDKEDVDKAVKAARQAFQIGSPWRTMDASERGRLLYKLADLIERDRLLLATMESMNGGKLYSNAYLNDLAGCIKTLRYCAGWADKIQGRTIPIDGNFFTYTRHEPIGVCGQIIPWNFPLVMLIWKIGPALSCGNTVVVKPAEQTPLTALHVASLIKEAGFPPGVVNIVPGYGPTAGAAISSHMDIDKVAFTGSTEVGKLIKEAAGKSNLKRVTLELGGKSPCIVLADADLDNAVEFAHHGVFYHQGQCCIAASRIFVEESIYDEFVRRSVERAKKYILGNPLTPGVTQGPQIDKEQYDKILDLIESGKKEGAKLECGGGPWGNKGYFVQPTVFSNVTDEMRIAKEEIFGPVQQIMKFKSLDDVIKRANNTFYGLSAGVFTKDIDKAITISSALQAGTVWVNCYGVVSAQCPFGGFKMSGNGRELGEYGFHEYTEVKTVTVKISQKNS
# Procedure: Example 358. ALDH1A1 Enzymatic Assay (In Vitro Assay)
# 3 μL of ALDH1A1 enzyme (final concentration 20 nM) or assay buffer (100 mM HEPES pH 7.5 with 0.01% Tween 20) were dispensed into a 1,536-well solid-bottom black plate (Greiner Bio One, Monroe, N.C.) followed by pin-tool transfer (23 nL) of candidate inhibitors (final concentration range 968 pM to 57.2 μM) and control (Bay 11-7085, final concentration range 1.31 nM to 2.86 μM). Samples were incubated (RT, protected from light) for 15 minutes followed by a 1 μL substrate addition of NAD^+ and Propionaldehyde (final concentrations of 1 mM and 80 μM, respectively). Plates were centrifuged at 1,000 rpm for 15 seconds, then read in kinetic mode on a ViewLux High-throughput CCD imager (Perkin-Elmer) equipped with standard UV fluorescence optics (340 nm excitation, 450 nm emission) for 10 minutes. The change in fluorescence intensity over the 10-minute reaction period was normalized against no-inhibitor and no-enzyme controls and the resulting percent inhibition data were fitted for biological activity.
# [2] = tested on: MIA PaCa-2 cells; experiment: MIA PaCa2 cell-based assay (1,536-well high-content imaging ALDEFLUOR assay); set-up: species or system human; settings: Homo sapiens, 0.5 h, ALDEFLUOR BAAA substrate 500 nM, 30 minutes
# How it was run: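 High-content ALDEFLUOR imaging readout: BAA-retaining cells in FITC channel scored against Hoechst-counted nuclei. Before imaging, MIA PaCa-2 cells seeded at 1,000 per well received final 500 nM BAAA and 0.5 nM Hoechst with compounds in 16-point series (1.4 nM to 47.8 μM), 30 min, 37° C.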
Compound,IC50 [1],IC50 [2]
"N#CC1(c2ccccc2)CCN(c2c(C(=O)N3CC(O)C3)cnc3ccc(F)cc23)CC1 [Cpd. 326, 1-(6-fluoro-3-(3-hydroxyazetidine-1-carbonyl)quinolin-4-yl)-4-phenylpiperidine-4-carbonitrile]",< 500 nM,1000 to 10000 nM
"CCN(CC)C(=O)N1CCN(C(=O)c2cnc3ccc(F)cc3c2N2CCC3(CC2)OCCO3)CC1 [Example 149, N,N-diethyl-4-(6-fluoro-4-(1,4-dioxa-8-azaspiro[4.5]decan-8-yl)quinoline-3-carbonyl)piperazine-1-carboxamide]",< 500 nM,1000 to 10000 nM
"COc1ccc2c(N3CCC(C)(C#N)CC3)c(C(=O)N3CCN(S(C)(=O)=O)CC3)cnc2c1 [Example 105, 1-(7-methoxy-3-(4-(methylsulfonyl)piperazine-1-carbonyl)quinolin-4-yl)-4-methylpiperidine-4-carbonitrile]",< 500 nM,1000 to 10000 nM
"COc1ccc2ncc(C(=O)N3CCN(C(=O)C4CC4)CC3)c(N3CCC(F)(F)CC3)c2c1 [Example 44, (4-(cyclopropanecarbonyl)piperazin-1-yl)(4-(4,4-difluoropiperidin-1-yl)-6-methoxyquinolin-3-yl)methanone]",> 10000 nM,> 10000 nM
"N#CC1(c2ccccc2)CCN(c2c(C(=O)N[C@H]3CC[C@H](O)CC3)cnc3ccc(F)cc23)CC1 [Cpd. 325, 4-(4-cyano-4-phenylpiperidin-1-yl)-6-fluoro-N-((1R,4R)-4-hydroxycyclohexyl)quinoline-3-carboxamide]",< 500 nM,< 500 nM
"CN(C)S(=O)(=O)N1CCN(C(=O)c2cnc3ccc(Cl)cc3c2N2CCC(C#N)(c3ccccc3)CC2)CC1 [Cpd. 314, 4-(6-chloro-4-(4-cyano-4-phenylpiperidin-1-yl)quinoline-3-carbonyl)-N,N-dimethylpiperazine-1-sulfonamide]",< 500 nM,< 500 nM
"N#CC1(c2ccc(-c3c(C(=O)N4CCC(O)(C5CC5)CC4)cnc4ccc(F)cc34)cc2)CC1 [Cpd. 353, 1-(4-(3-(4-cyclopropyl-4-hydroxypiperidine-1-carbonyl)-6-fluoroquinolin-4-yl)phenyl)cyclopropane-1-carbonitrile]",< 500 nM,1000 to 10000 nM
"COc1ccc2ncc(C(=O)N3CCN(C(=O)C4CC4)CC3)c(NC3CCC3)c2c1 [Example 22, (4-(cyclobutylamino)-6-methoxyquinolin-3-yl)(4-(cyclopropanecarbonyl)piperazin-1-yl)methanone, TFA]",> 10000 nM,–
"COc1ccc2ncc(C(=O)N3CCN(C(=O)C4CC4)CC3)c(NC3CCN(C)CC3)c2c1 [Example 21, (4-(cyclopropanecarbonyl)piperazin-1-yl)(6-methoxy-4-((1-methylpiperidin-4-yl)amino)quinolin-3-yl)methanone, TFA]",> 10000 nM,–
"COc1ccc2ncc(C(=O)N3CCN(C(=O)C4CC4)CC3)c(N3CCN(c4ccncc4)CC3)c2c1 [Example 20, (4-(cyclopropanecarbonyl)piperazin-1-yl)(6-methoxy-4-(4-(pyridin-4-yl)piperazin-1-yl)quinolin-3-yl)methanone, TFA]",> 10000 nM,–
"COc1ccc2ncc(C(=O)NC3CCN(C)CC3)c(N3CCC4(CC3)OCCO4)c2c1 [Example 16, 6-methoxy-N-(1-methylpiperidin-4-yl)-4-(1,4-dioxa-8-azaspiro[4.5]decan-8-yl)quinoline-3-carboxamide, TFA]",1000 to 10000 nM,–
"COc1ccc2ncc(C(=O)N3CCN(C(=O)C4CC4)CC3)c(N3C[C@@H](C)O[C@@H](C)C3)c2c1 [Example 34, (4-(cyclopropanecarbonyl)piperazin-1-yl)(44(2S*,6R*)-2,6-dimethylmorpholino)-6-methoxyquinolin-3-yl)methanone]",> 10000 nM,–

# More lines, now with the values ahead:
IC50 [1],IC50 [2],Compound
< 500 nM,500 to 1000 nM,"O=C(C1CC1)C1CCN(C(=O)c2cnc3c(F)cc(F)cc3c2N2CCC3(CC2)OCCO3)CC1 [Example 192, (4-(cyclopropanecarbonyl)piperidin-1-yl)(6,8-difluoro-4-(1,4-dioxa-8-azaspiro[4.5]decan-8-yl)quinolin-3-yl)methanone]"
< 500 nM,1000 to 10000 nM,"CC1(C#N)CCN(c2c(C(=O)N3CCC(S(C)(=O)=O)CC3)cnc3c(F)cc(F)cc23)CC1 [Example 189, 1-(6,8-difluoro-3-(4-(methylsulfonyl)piperidine-1-carbonyl)quinolin-4-yl)-4-methylpiperidine-4-carbonitrile]"
1000 to 10000 nM,> 10000 nM,"O=C(c1cnc2ccc(F)cc2c1N1CCC2(CC1)Cc1ccccc1C2=O)N1CCN(C(=O)C2CC2)CC1 [Example 204, 1′-(3-(4-(cyclopropanecarbonyl)piperazine-1-carbonyl)-6-fluoroquinolin-4-yl)spiro[indene-2,4′-piperidin]-1(3H)-one]"
< 500 nM,< 500 nM,"CN(C)S(=O)(=O)N1CCN(C(=O)c2cnc3ccc(F)cc3c2-c2ccc(C(C)(C)C#N)cc2)CC1 [Example 261, 4-(4-(4-(2-cyanopropan-2-yl)phenyl)-6-fluoroquinoline-3-carbonyl)-N,N-dimethylpiperazine-1-sulfonamide]"
1000 to 10000 nM,> 10000 nM,"CC1(C#N)CCN(c2c(C(=O)N3CCN(S(=O)(=O)N4CCCC4)CC3)cnc3ccc(F)cc23)CC1 [Example 158, 1-(6-fluoro-3-(4-(pyrrolidin-1-ylsulfonyl)piperazine-1-carbonyl)quinolin-4-yl)-4-methylpiperidine-4-carbonitrile]"
< 500 nM,500 to 1000 nM,"O=C(C1CC1)C1CCN(C(=O)c2cnc3ccc(F)cc3c2N2CCC3(CC2)OCCO3)CC1 [Example 191, (4-(cyclopropanecarbonyl)piperidin-1-yl)(6-fluoro-4-(1,4-dioxa-8-azaspiro[4.5]decan-8-yl)quinolin-3-yl)methanone]"
< 500 nM,1000 to 10000 nM,"CS(=O)(=O)N1CCN(C(=O)c2cnc3ccc(F)cc3c2N2CCC3(CCOC3=O)CC2)CC1 [Example 249, 8-(6-fluoro-3-(4-(methylsulfonyl)piperazine-1-carbonyl)quinolin-4-yl)-2-oxa-8-azaspiro[4.5]decan-1-one]"
< 500 nM,1000 to 10000 nM,"CC1(C#N)CCN(c2c(C(=O)N3CCN(S(C)(=O)=O)C4(CC4)C3)cnc3ccc(F)cc23)CC1 [Example 230, 1-(6-fluoro-3-(4-(methylsulfonyl)-4,7-diazaspiro[2.5]octane-7-carbonyl)quinolin-4-yl)-4-methylpiperidine-4-carbonitrile]"
< 500 nM,1000 to 10000 nM,"O=C(c1cnc2ccc(F)cc2c1N1CCC2(CCCC2=O)CC1)N1CCN(C(=O)C2CC2)CC1 [Example 250, 8-(3-(4-(cyclopropanecarbonyl)piperazine-1-carbonyl)-6-fluoroquinolin-4-yl)-8-azaspiro[4.5]decan-1-one]"
< 500 nM,1000 to 10000 nM,"CCN(CC)C(=O)N1CCN(C(=O)c2cnc3ccc(F)cc3c2N2CCC(C)(C#N)CC2)CC1 [Example 154, 4-(4-(4-cyano-4-methylpiperidin-1-yl)-6-fluoroquinoline-3-carbonyl)-N,N-diethylpiperazine-1-carboxamide]"
< 500 nM,1000 to 10000 nM,"CCN(CC)C(=O)N1CCN(C(=O)c2cnc3c(F)cc(F)cc3c2N2CCC3(CC2)OCCO3)CC1 [Example 159, 4-(6,8-difluoro-4-(1,4-dioxa-8-azaspiro[4.5]decan-8-yl)quinoline-3-carbonyl)-N,N-diethylpiperazine-1-carboxamide]"
< 500 nM,1000 to 10000 nM,"CC1(C#N)CCN(c2c(C(=O)N3CCN(C(=O)C4CC4)C4(CC4)C3)cnc3ccc(F)cc23)CC1 [Example 232, 1-(3-(4-(cyclopropanecarbonyl)-4,7-diazaspiro[2.5]octane-7-carbonyl)-6-fluoroquinolin-4-yl)-4-methylpiperidine-4-carbonitrile]"
500 to 1000 nM,1000 to 10000 nM,"CCN(CC)C(=O)N1CCN(C(=O)c2cnc3c(F)cc(F)cc3c2N2CCC(C)(C#N)CC2)CC1 [Example 164, 4-(4-(4-cyano-4-methylpiperidin-1-yl)-6,8-difluoroquinoline-3-carbonyl)-N,N-diethylpiperazine-1-carboxamide]"
